Measured values from US20230146455A1, “TREATMENT OF INFLAMMATORY DISEASES WITH PEPTIDES AND PHARMACEUTICAL COMPOSITIONS” (Yuyu Pharma, Inc., priority 2020, published 2023).
Several values for one entry are separate records, joined by “and”; a condition that tells them apart may be missing. Equal entries are not always repeated. Where a SMILES comes first, the peptide text is derived from it. [ ]: non-standard residue; d: D form. Hyp = O=C(O)[C@@H]1C[C@@H](O)CN1

Tested on: IL-4
Experiment: Example 9 Luminex, LPS hPBMCs: IL-4
Type: cell-based, human
Method: Treatment Human PBMCs were pretreated with YY-101, YDE-011 and YDE-043 or reference compound; Xiidra® at various concentration (ranging from 1 nM to 100 uM) for 2 h before stimulation. An equal volume of 0.5% DMSO was used as a vehicle control. Then, the cells were treated with LPS at 5 ug/ml. The supernatants from treated cells were harvested at 24 h and placed in a 96 well for Luminex cytokine & chemokine profiling using a Luminex 200 multiplex assay (Luminex; R&D system, USA).
The main study arm with triplicate wells per group in a 24-well plate: • 1. Blank • 2. PBMC: 0.5% DMSO • 3. PBMC+LPS (5 ug/ml) • 4. PBMC+YY-101 100 uM • 5. PBMC+YY-101 10 uM • 6. PBMC+YY-101 1 uM • 7. PBMC+YY-101 0.1 uM • 8. PBMC+YY-101 0.01 uM • 9. PBMC+LPS (5 ug/ml)+Xiidra®100 uM • 10. PBMC+LPS (5 ug/ml)+Xiidra® 10 uM • 11. PBMC+LPS (5 ug/ml)+Xiidra® 1 uM • 12. PBMC+LPS (5 ug/ml)+Xiidra®0.1 uM • 13. PBMC+LPS (5 ug/ml)+Xiidra®0.01 uM • 14. PBMC+LPS (5 ug/ml)+Xiidra®0.001 uM • 15. PBMC+LPS (5 ug/ml)+YY-101 100 uM • 16. PBMC+LPS (5 ug/ml)+YY-101 10 uM • 17. PBMC+LPS (5 ug/ml)+YY-101 1 uM • 18. PBMC+LPS (5 ug/ml)+YY-101 0.1 uM • 19. PBMC+LPS (5 ug/ml)+YY-101 0.01 uM • 20. PBMC+LPS (5 ug/ml)+YY-101 0.001 uM • 21. PBMC+LPS (5 ug/ml)+YDE-011 100 uM • 22. PBMC+LPS (5 ug/ml)+YDE-011 10 uM • 23. PBMC+LPS (5 ug/ml)+YDE-011 1 uM • 24. PBMC+LPS (5 ug/ml)+YDE-011 0.1 uM • 25. PBMC+LPS (5 ug/ml)+YDE-011 0.01 uM • 26. PBMC+LPS (5 ug/ml)+YDE-011 0.001 uM • 27. PBMC+LPS (5 ug/ml)+YDE-043 100 uM • 28. PBMC+LPS (5 ug/ml)+YDE-043 10 uM • 29. PBMC+LPS (5 ug/ml)+YDE-043 1 uM • 30. PBMC+LPS (5 ug/ml)+YDE-043 0.1 uM • 31. PBMC+LPS (5 ug/ml)+YDE-043 0.01 uM • 32. PBMC+LPS (5 ug/ml)+YDE-043 0.001 uM
Multiplex assay was used to measure 30 cytokines and chemokines. The 1:2, 1:10 and 1:200 diluted cell supernatant and serial dilution of the standard were dispensed into a 96 well plate at 50 ul/well. Then, the pre-mixed cocktail of antibody-coated magnetic beads was dispensed at 50 ul/well and incubated at room temperature for 2 h in a horizontal orbital microplate shaker at 800±500 rpm. The beads were washed using a magnetic device to prevent loss. The biotin-antibody was dispensed in 50 ul of each well and incubated at room temperature for 1 h in a shaker at 800±500 rpm. After washing, streptavidin-PE was added at 50 ul/well and incubated at room temperature for 30 min in a shaker under the same conditions. Finally, after washing, wash buffer (100 ul/well) was added to the plate and incubated in a shaker for 2 min. The Luminex™ 200 setting were set according to the manufacturer's protocol. The data was calculated with a standard five-parameter logistic nonlinear regression analysis of the data (xPonent software 4.2, USA). The levels of cytokine/chemokine are normalized to the live cell counts (1×10^5 cells/mL) and presented as concentrations per mL (pg/mL or ng/mL).

[1] = PBMC + LPS(5 ug/ml) + test article 0.001 uM, Mean
[2] = PBMC + LPS(5 ug/ml) + test article 0.001 uM, single replicates
[3] = PBMC + LPS(5 ug/ml) + test article 0.01 uM, Mean
[4] = PBMC + LPS(5 ug/ml) + test article 0.01 uM, single replicates
[5] = PBMC + LPS(5 ug/ml) + test article 0.1 uM, Mean
[6] = PBMC + LPS(5 ug/ml) + test article 0.1 uM, single replicates
[7] = PBMC + LPS(5 ug/ml) + test article 1 uM, Mean
[8] = PBMC + LPS(5 ug/ml) + test article 1 uM, single replicates
[9] = PBMC + LPS(5 ug/ml) + test article 10 uM, Mean
[10] = PBMC + LPS(5 ug/ml) + test article 10 uM, single replicates
[11] = PBMC + LPS(5 ug/ml) + test article 100 uM, Mean
[12] = PBMC + LPS(5 ug/ml) + test article 100 uM, single replicates

CC(C)C[C@H](NC(=O)CNC(=O)[C@H](CC(C)C)NC(=O)[C@H](CCC(N)=O)NC(=O)CNC(=O)[C@@H]1C[C@@H](O)CN1)C(=O)N[C@@H](C)C(=O)NCC(=O)N1CCC[C@H]1C(=O)N[C@@H](CCCCN)C(=O)O [YDE-011] (H-[Hyp]GQLGLAGPK-OH)
Concentration, Bead name: IL-4 [1]: 13.2 pg/mL
MFI, Bead name: IL-4 [1]: −0.5
conc/live cell, Bead name: IL-4 [1]: 2.6 pg/10^5
Concentration, Bead name: IL-4 [2]: 18.4 pg/mL and 7.7 pg/mL and 13.6 pg/mL
MFI, Bead name: IL-4 [2]: 0.0 and −1.0 and −0.5
conc/live cell, Bead name: IL-4 [2]: 4.1 pg/10^5 and 1.3 pg/10^5 and 2.3 pg/10^5
Concentration, Bead name: IL-4 [3]: 23.7 pg/mL
MFI, Bead name: IL-4 [3]: 0.7
conc/live cell, Bead name: IL-4 [3]: 4.1 pg/10^5
Concentration, Bead name: IL-4 [4]: 18.4 pg/ml and 26.4 pg/ml (2×)
MFI, Bead name: IL-4 [4]: 0.0 and 1.0 (2×)
conc/live cell, Bead name: IL-4 [4]: 2.9 pg/10^5 and 4.3 pg/10^5 and 5.2 pg/10^5
Concentration, Bead name: IL-4 [5]: 22.4 pg/mL
MFI, Bead name: IL-4 [5]: −0.3
conc/live cell, Bead name: IL-4 [5]: 2.5 pg/10^5
Concentration, Bead name: IL-4 [6]: 18.4 pg/mL and 26.4 pg/mL
MFI, Bead name: IL-4 [6]: 0.0 and −2.0 and 1.0
conc/live cell, Bead name: IL-4 [6]: 2.8 pg/10^5 and 0.0 pg/10^5 and 4.6 pg/10^5
Concentration, Bead name: IL-4 [7]: 18.4 pg/mL
MFI, Bead name: IL-4 [7]: −0.5
conc/live cell, Bead name: IL-4 [7]: 2.4 pg/10^5
Concentration, Bead name: IL-4 [8]: 18.4 pg/mL
MFI, Bead name: IL-4 [8]: 0.0 (2×) and −1.5
conc/live cell, Bead name: IL-4 [8]: 3.3 pg/10^5 and 0.0 pg/10^5 and 3.8 pg/10^5
Concentration, Bead name: IL-4 [9]: 16.8 pg/mL
MFI, Bead name: IL-4 [9]: −0.2
conc/live cell, Bead name: IL-4 [9]: 3.2 pg/10^5
Concentration, Bead name: IL-4 [10]: 18.4 pg/ml (2×) and 13.6 pg/ml
MFI, Bead name: IL-4 [10]: 0.0 (2×) and −0.5
conc/live cell, Bead name: IL-4 [10]: 3.4 pg/10^5 and 2.3 pg/10^5 and 3.9 pg/10^5
Concentration, Bead name: IL-4 [11]: 7.7 pg/mL
MFI, Bead name: IL-4 [11]: −1.2
conc/live cell, Bead name: IL-4 [11]: 0.8 pg/10^5
Concentration, Bead name: IL-4 [12]: 7.7 pg/mL
MFI, Bead name: IL-4 [12]: −1.0 (2×) and −1.5
conc/live cell, Bead name: IL-4 [12]: 1.3 pg/10^5 (2×) and 0.0 pg/10^5
